Where “and” joins values, the source holds several entries; their conditions need not be identical. Identical values can stand only once.
How the values were obtained:
[1] = tested on: Murine p185+ B-ALL cells expressing human MCL-1; assay: Engineered murine B-cell ALL lines, cell viability (CellTiter-Glo); format: cell-based; details: Mus musculus, 24 hours, 10% fetal bovine serum
Method: Supplementary Table S3: Cellular potency and selectivity of ABBV-467 in
engineered murine B-c ell ALL c ell li nes
B-Cell ALL Lines (EC50, nM)
BCL-XL BCL-2 BCL-w BCL2A1 MCL-1
Murine p185+ B-ALL cells selectiv ely expressing individual human anti–BCL-2 family members (36)
were treated with ABBV-467 for 24 hours in RPMI-1640 media ( Life Technologies, CA) containing
10% fetal bovine serum, 55 μM 2 -mercaptoethanol, 2 mM glutamine, and 1%
penicil lin/ stre ptomycin an d th e i mpact on cell via bility de termi ned usi ng Ce llTiter- Glo. Each EC50 was
calculated from the resulting dose- response curves. Data are presented as the mean of three
independent experiments, except *(n=2). Where an EC50 could not be accurately determined,
activity was define d as >3,000 nM.
ALL, acute lymphoblastic leukemia; BCL- 2, B-cell lymphoma 2; EC 50, half maximal effective

[2] = Phase 1 first-in-human study (NCT04178902): pharmacokinetics; format: in vivo
Excerpt: Other eligibility criteria included: Eastern Cooperative Oncology Group performance status ≤2, measurable disease as defined by International Myeloma Working Group (IMWG) consensus criteria, an echocardiogram with an ejection fraction ≥50%, and adequate hematologic, hepatic, and renal function. […] Safety evaluations included, but were not limited to, adverse event (AE) monitoring, physical examinations, vital sign measurements, electrocardiogram (ECG), cardiac enzyme monitoring, and clinical laboratory testing (hematology and chemistry) as a measure of safety and tolerability for the entire study duration. Parameters used to determine PK included maximum observed plasma concentration (Cmax), terminal elimination half-life (t1/2), area under the plasma concentration-time curve (AUC) from time 0 to time of last measurable concentration (AUCt), AUC from time 0 to infinity (AUC0-∞), and clearance using non-compartmental methods. […] Preliminary efficacy endpoints were overall response rate (ORR), clinical benefit rate (CBR), and duration of response (DOR) as evaluated per adapted IMWG[36] criteria for MM and per adapted International Working Group (IWG)[37] and European Leukemia Net (ELN)[38] criteria for AML. […]

[3] = Cycle 1 day 1, dose level 0.32 mg/kg (only half of this dose given), N=2, individual values
[4] = Cycle 1 day 15, 0.32 mg/kg, N=2, individual values
[5] = Cycle 1 day 15, 0.53 mg/kg, N=2, individual values

## Cc1c(Cl)c2c(Cl)c(C)c1-c1c(-c3ccc(F)cc3)sc3ncnc(c13)O[C@@H](C(=O)O)Cc1cc(ccc1OCc1ccnc(-c3ccc(OC[C@H]4COCCO4)cc3)n1)OC[C@@H](CN1CCN(C)CC1)O2 [ABBV-467]
[1]
  EC50: 20.3 nM
[2]; Cycle 1 Day 1, DOSE_MGKG 0.08, cohort 1, PKTIME 0.333333
  CONC_NGML: 0.157 µg/mL and 0.146 µg/mL
[2]; Cycle 1 Day 1, DOSE_MGKG 0.08, cohort 1, PKTIME 0.5
  CONC_NGML: 0.198 µg/mL and 0.162 µg/mL
[2]; Cycle 1 Day 1, DOSE_MGKG 0.16, cohort 2, PKTIME 0.5
  CONC_NGML: 0.344 µg/mL
[2]; Cycle 1 Day 1, DOSE_MGKG 0.16, cohort 2, PKTIME 1
  CONC_NGML: 0.0219 µg/mL
[2]; Cycle 1 Day 1, DOSE_MGKG 0.16, cohort 2, PKTIME 1.5
  CONC_NGML: 0.017 µg/mL
[2]; Cycle 1 Day 1, DOSE_MGKG 0.16, cohort 2, PKTIME 2.5
  CONC_NGML: 0.00662 µg/mL
[2]; Cycle 1 Day 1, DOSE_MGKG 0.265, cohort 3, PKTIME 0.333333
  CONC_NGML: 0.655 µg/mL and 0.47 µg/mL
[2]; Cycle 1 Day 1, DOSE_MGKG 0.265, cohort 3, PKTIME 0.5
  CONC_NGML: 0.708 µg/mL and 0.613 µg/mL
[2]; Cycle 1 Day 1, DOSE_MGKG 0.265, cohort 3, PKTIME 1.5
  CONC_NGML: 0.0265 µg/mL and 0.0266 µg/mL
[2]; Cycle 1 Day 1, DOSE_MGKG 0.265, cohort 3, PKTIME 2.5
  CONC_NGML: 0.00681 µg/mL and 0.0111 µg/mL
[2]; Cycle 1 Day 15, DOSE_MGKG 0.16, cohort 1, PKTIME 0.333333
  CONC_NGML: 0.297 µg/mL and 0.479 µg/mL
[2]; Cycle 1 Day 15, DOSE_MGKG 0.16, cohort 1, PKTIME 1
  CONC_NGML: 0.0468 µg/mL and 0.0446 µg/mL
[2]; Cycle 1 Day 15, DOSE_MGKG 0.16, cohort 1, PKTIME 1.5
  CONC_NGML: 0.0146 µg/mL and 0.0101 µg/mL
[2]; Cycle 1 Day 15, DOSE_MGKG 0.32, cohort 2, PKTIME 0.333333
  CONC_NGML: 0.529 µg/mL
[2]; Cycle 1 Day 15, DOSE_MGKG 0.53, cohort 3, PKTIME 0.166667
  CONC_NGML: 0.94 µg/mL
[2]; Cycle 1 Day 15, DOSE_MGKG 0.53, cohort 3, PKTIME 0.333333
  CONC_NGML: 1.43 µg/mL
[2]; Cycle 1 Day 15, DOSE_MGKG 0.53, cohort 3, PKTIME 0.5
  CONC_NGML: 1.51 µg/mL
[2]; Cycle 1 Day 15, DOSE_MGKG 0.53, cohort 3, PKTIME 1.5
  CONC_NGML: 0.0606 µg/mL
[2]; Cycle 1 Day 15, DOSE_MGKG 0.53, cohort 3, PKTIME 2.5
  CONC_NGML: 0.0263 µg/mL
[2]; Cycle 1 Day 15, DOSE_MGKG 0.53, cohort 3, PKTIME 4.5
  CONC_NGML: 0.00814 µg/mL
[2]; [3]
  AUCinf: 0.309 µg·h/mL
  AUCt: 0.306 µg·h/mL
  CL: 0.517 L/h/kg
  Cmax: 0.344 µg/mL
  t1/2: 34.4 min
[2]; [4]
  AUCinf: 0.94 µg·h/mL and 0.35 µg·h/mL
  AUCt: 0.346 µg·h/mL and 0.933 µg·h/mL
  CL: 0.34 L/h/kg and 0.914 L/h/kg
  Cmax: 1.72 µg/mL and 0.646 µg/mL
  Tmax: 45.0 min
  t1/2: 23.0 min and 54.3 min
[2]; [5]
  AUCinf: 1.29 µg·h/mL
  AUCt: 1.28 µg·h/mL
  CL: 0.41 L/h/kg
  Cmax: 1.86 µg/mL
  t1/2: 64.1 min
[2]; human patients at the doses studied
  pharmacokinetics: linear pharmacokinetics
[2]; human, in vivo, 0.08 mg/kg, Cycle 1 Day 1, DOSE_MGKG 0.08, cohort 1, PKTIME 0, read-out: CONC_NGML
  concentration at 0 h: 0 µg/mL
[2]; human, in vivo, 0.08 mg/kg, Cycle 1 Day 1, DOSE_MGKG 0.08, cohort 1, PKTIME 0.333333, read-out: CONC_NGML
  concentration at 20 min: 0.132 µg/mL
[2]; human, in vivo, 0.08 mg/kg, Cycle 1 Day 1, DOSE_MGKG 0.08, cohort 1, PKTIME 0.5, read-out: CONC_NGML
  concentration at 0.5 h: 0.252 µg/mL
[2]; human, in vivo, 0.08 mg/kg, Cycle 1 Day 1, DOSE_MGKG 0.08, cohort 1, PKTIME 4.5, read-out: CONC_NGML
  concentration at 4.5 h: 0 µg/mL
[2]; human, in vivo, 0.08 mg/kg, Cycle 1 Day 1, DOSE_MGKG 0.08, cohort 1, PKTIME 8.5, read-out: CONC_NGML
  concentration at […]: 0 µg/mL

Reference: article PMC10600239, “Selective MCL-1 inhibitor ABBV-467 is efficacious in tumor models but is associated with cardiac troponin increases in patients” (Communications Medicine, 2023)
